Data taken from patent publication US12673944B2, “Compounds having inhibitory activity against glucosylceramide synthase or pharmaceutically acceptable salt thereof, processes for preparing the same, and pharmaceutical compositions comprising the same” (YUHAN CORPORATION, priority 2019, dated 2026).

Experiments:
[1] = target: T1, glucosylceramide synthase (GCS) (Homo sapiens, UniProt Q16739); experiment: GCS enzyme inhibition assay (A549 cell lysate, NBD C6-ceramide, HPLC fluorescence); type: biochemical; conditions: inhibitory activity against GCS, 37° C., 90 minutes
T1 construct: The obtained supernatant was used; host or cells: A549 cells (lysate supernatant after sonication)
T1 sequence (Q16739 1-394): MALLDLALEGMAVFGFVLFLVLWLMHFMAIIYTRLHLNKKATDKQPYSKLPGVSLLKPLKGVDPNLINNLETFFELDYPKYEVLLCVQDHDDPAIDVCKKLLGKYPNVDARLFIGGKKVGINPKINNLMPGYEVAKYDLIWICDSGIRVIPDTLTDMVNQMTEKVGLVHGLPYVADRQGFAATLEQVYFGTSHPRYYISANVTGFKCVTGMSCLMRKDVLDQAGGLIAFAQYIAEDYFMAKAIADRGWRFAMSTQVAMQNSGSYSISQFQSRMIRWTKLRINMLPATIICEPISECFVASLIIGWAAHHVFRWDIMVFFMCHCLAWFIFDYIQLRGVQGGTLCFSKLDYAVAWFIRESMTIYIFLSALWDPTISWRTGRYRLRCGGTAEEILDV
Protocol: Ibiglustat, known as a GCS inhibitor, was used as a control.
After the cells attached to the culture dish were washed with phosphate buffered saline (PBS), the cells were scraped off with a cell scraper and then centrifuged (4000 rpm, 3 min, 4° C.) to collect the cells in a 50 ml tube. The cell pellets were suspended in a lysis buffer (50 mM HEPES, pH 7.3, containing 1× the protease/phosphatase inhibitor cocktail), lysed by sonication, and then the lysate was centrifuged (13000 rpm, 10 min, 4° C.). The obtained supernatant was used for the quantitative analysis of proteins. The amount of proteins was measured using the BCA protein assay kit, using bovine serum albumin as a standard.
Enzymatic reactions were initiated by sequentially adding the following reaction materials to a 96 deep-well plate. Thereafter, the enzymatic reactions were performed at 37° C. for 90 minutes.
The enzymatic reactions were stopped by adding 100 μl of chloroform/methanol (2:1, v/v). After vortexing for 15 seconds, each mixture was centrifuged (4000 rpm, 10 min, 18° C.). The lower layer (50 μl) was transferred to a new 96 deep-well plate and dried with a reduced concentrator.
Data analysis was performed by the following equations. % Area(Sample)=Area(GlcCer)/[Area(Cer)+Area(GlcCer)]×100 % GCS activity=[Area(Sample)−Area(ibiglustat)]/[Area(DMSO)−Area(ibiglustat)]×100

[2] = tested on: GM1 production in Jurkat cells; experiment: cells; type: cell-based; conditions: Homo sapiens, Jurkat, 72 h

Structure (SMILES) | IC50 [1] [nM] | IC50 [2] [nM]
O=C(NC1CCOc2cc(-c3ccc(OC(F)F)cc3)ccc21)O[C@@H]1CN2CCC1CC2 (stereo partly drawn) [Example 32, (S)-quinuclidin-3-yl (7-(4-(difluoromethoxy)phenyl)chroman-4-yl)carbamate] | 3.34 | 48.6
O=C(NC1CCOc2cc(-c3ccc(F)c(C(F)(F)F)c3)ccc21)O[C@@H]1CN2CCC1CC2 (stereo partly drawn) [Example 33, (S)-quinuclidin-3-yl (7-(4-fluoro-3-(trifluoromethyl)phenyl)chroman-4-yl)carbamate] | 1.43 | 10.8
O=C(NC1CCOc2cc(-c3cc(Cl)cc(C(F)(F)F)c3)ccc21)O[C@@H]1CN2CCC1CC2 (stereo partly drawn) [Example 34, (S)-quinuclidin-3-yl (7-(3-chloro-5-(trifluoromethyl)phenyl)chroman-4-yl)carbamate] | 1.97 | 5.97
O=C(NC1CCOc2cc(-c3ccc(C4CC4)cc3)ccc21)O[C@@H]1CN2CCC1CC2 (stereo partly drawn) [Example 35, (S)-quinuclidin-3-yl (7-(4-cyclopropylphenyl)chroman-4-yl)carbamate] | 2.77 | 5.44
O=C(NC1CCOc2cc(-c3ccc4c(c3)OC(F)(F)O4)ccc21)O[C@@H]1CN2CCC1CC2 (stereo partly drawn) [Example 36, (S)-quinuclidin-3-yl (7-(2,2-difluorobenzo[d][1,3]dioxol-5-yl)chroman-4-yl)carbamate] | 1.53 | 11.1
O=C(NC1CCOc2cc(-c3ccc4c(c3)OCCO4)ccc21)O[C@@H]1CN2CCC1CC2 (stereo partly drawn) [Example 37, (S)-quinuclidin-3-yl (7-(2,3-dihydrobenzo[b][1,4]dioxin-6-yl)chroman-4-yl)carbamate] | 1.4 | 9.47
O=C(NC1CCOc2cc(C3=CCCO3)ccc21)O[C@@H]1CN2CCC1CC2 (stereo partly drawn) [Example 38, (S)-quinuclidin-3-yl (7-(2,3-dihydrofuran-5-yl)chroman-4-yl)carbamate] | 3.02 | 14.5
N#Cc1cccc(-c2ccc3c(c2)OCCC3NC(=O)O[C@@H]2CN3CCC2CC3)c1 (stereo partly drawn) [Example 39, (S)-quinuclidin-3-yl (7-(3-cyanophenyl)chroman-4-yl)carbamate] | 1.82 | 7.73
N#Cc1ccccc1-c1ccc2c(c1)OCCC2NC(=O)O[C@@H]1CN2CCC1CC2 (stereo partly drawn) [Example 40, (S)-quinuclidin-3-yl (7-(2-cyanophenyl)chroman-4-yl)carbamate] | 3.78 | 19.7
CN(C)c1cccc(-c2ccc3c(c2)OCCC3NC(=O)O[C@@H]2CN3CCC2CC3)c1 (stereo partly drawn) [Example 41, (S)-quinuclidin-3-yl (7-(3-(dimethylamino)phenyl)chroman-4-yl)carbamate] | 0.52 | 0.45
O=C(NC1CCOc2cc(-c3cc4ccccc4s3)ccc21)O[C@@H]1CN2CCC1CC2 (stereo partly drawn) [Example 42, (S)-quinuclidin-3-yl (7-(benzo[b]thiophen-2-yl)chroman-4-yl)carbamate] | 14 | 34.1
O=C(NC1CCOc2cc(-c3coc4ccccc34)ccc21)O[C@@H]1CN2CCC1CC2 (stereo partly drawn) [Example 43, (S)-quinuclidin-3-yl (7-(benzofuran-3-yl)chroman-4-yl)carbamate] | 0.58 | 0.02
O=C(NC1CCOc2cc(-c3cc4ccccc4o3)ccc21)O[C@@H]1CN2CCC1CC2 (stereo partly drawn) [Example 44, (S)-quinuclidin-3-yl (7-(benzofuran-2-yl)chroman-4-yl)carbamate] | 9.17 | 15.6
O=C(NC1CCOc2cc(-c3ccc4cc[nH]c4c3)ccc21)O[C@@H]1CN2CCC1CC2 (stereo partly drawn) [Example 45, (S)-quinuclidin-3-yl (7-(1H-indol-6-yl)chroman-4-yl)carbamate] | 4.13 | 26.2
O=C(NC1CCOc2cc(-c3c[nH]c4ccccc34)ccc21)O[C@@H]1CN2CCC1CC2 (stereo partly drawn) [Example 46, (S)-quinuclidin-3-yl (7-(1H-indol-3-yl)chroman-4-yl)carbamate] | 4.08 | 20.5
O=C(NC1CCOc2cc(-c3cccc4cc[nH]c34)ccc21)O[C@@H]1CN2CCC1CC2 (stereo partly drawn) [Example 47, (S)-quinuclidin-3-yl (7-(1H-indol-7-yl)chroman-4-yl)carbamate] | 2.55 | 10.5

Structure (SMILES) | IC50 [1] [nM] | IC50 [2] [nM]
O=C(NC1CCOc2cc(-c3cccc4[nH]ncc34)ccc21)O[C@@H]1CN2CCC1CC2 (stereo partly drawn) [Example 48, (S)-quinuclidin-3-yl (7-(1H-indazol-4-yl)chroman-4-yl)carbamate] | 6.27 | 42
O=C(NC1CCOc2cc(-c3cccc4cn[nH]c34)ccc21)O[C@@H]1CN2CCC1CC2 (stereo partly drawn) [Example 49, (S)-quinuclidin-3-yl (7-(1H-indazol-7-yl)chroman-4-yl)carbamate] | 3.8 | 12.3
Cn1ncc2ccc(-c3ccc4c(c3)OCCC4NC(=O)O[C@@H]3CN4CCC3CC4)cc21 (stereo partly drawn) [Example 50, (S)-quinuclidin-3-yl (7-(1-methyl-1H-indazol-6-yl)chroman-4-yl)carbamate] | 3.98 | 25.9
Cn1ncc2c(-c3ccc4c(c3)OCCC4NC(=O)O[C@@H]3CN4CCC3CC4)cccc21 (stereo partly drawn) [Example 51, (S)-quinuclidin-3-yl (7-(1-methyl-1H-indazol-4-yl)chroman-4-yl)carbamate] | 1.02 | 4.99
Cn1c(-c2ccc3c(c2)OCCC3NC(=O)O[C@@H]2CN3CCC2CC3)cc2ccccc21 (stereo partly drawn) [Example 52, (S)-quinuclidin-3-yl (7-(1-methyl-1H-indol-2-yl)chroman-4-yl)carbamate] | 7.06 | 24.8
O=C(NC1CCOc2cc(-c3cncc4ccccc34)ccc21)O[C@@H]1CN2CCC1CC2 (stereo partly drawn) [Example 53, (S)-quinuclidin-3-yl (7-(isoquinolin-4-yl)chroman-4-yl)carbamate] | 1.77 | 2.66
O=C(NC1CCOc2cc(-c3cccc4cnccc34)ccc21)O[C@@H]1CN2CCC1CC2 (stereo partly drawn) [Example 54, (S)-quinuclidin-3-yl (7-(isoquinolin-5-yl)chroman-4-yl)carbamate] | 2.14 | 14.1
O=C(NC1CCOc2cc(-c3cnc4ccccc4c3)ccc21)O[C@@H]1CN2CCC1CC2 (stereo partly drawn) [Example 55, (S)-quinuclidin-3-yl (7-(quinolin-3-yl)chroman-4-yl)carbamate] | 3.58 | 22.3
O=C(NC1CCOc2cc(-c3cccc4cccnc34)ccc21)O[C@@H]1CN2CCC1CC2 (stereo partly drawn) [Example 56, (S)-quinuclidin-3-yl (7-(quinolin-8-yl)chroman-4-yl)carbamate] | 1.38 | 6.03
O=C(NC1CCOc2cc(-c3ccc4ccncc4c3)ccc21)O[C@@H]1CN2CCC1CC2 (stereo partly drawn) [Example 57, (S)-quinuclidin-3-yl (7-(isoquinolin-7-yl)chroman-4-yl)carbamate] | 3.52 | 36.6
O=C(NC1CCOc2cc(-c3ccc4c(c3)OCCCO4)ccc21)O[C@@H]1CN2CCC1CC2 (stereo partly drawn) [Example 58, (S)-quinuclidin-3-yl (7-(3,4-dihydro-2H-benzo[b][1,4]dioxepin-7-yl)chroman-4-yl)carbamate] | 2 | 21.2
O=C(NC1CCOc2cc(-c3cccc(-c4ccccc4)c3)ccc21)O[C@@H]1CN2CCC1CC2 (stereo partly drawn) [Example 59, (S)-quinuclidin-3-yl (7-([1,1′-biphenyl]-3-yl)chroman-4-yl)carbamate] | 0.3 | 2.22
O=C(NC1CCOc2cc(-c3cccc(S(=O)(=O)N4CCCC4)c3)ccc21)O[C@@H]1CN2CCC1CC2 (stereo partly drawn) [Example 60, (S)-quinuclidin-3-yl (7-(3-(pyrrolidin-1-ylsulfonyl)phenyl)chroman-4-yl)carbamate] | 2.39 | 16.5
O=C(NC1CCOc2cc(-c3ccc4c(c3)COC4)ccc21)O[C@@H]1CN2CCC1CC2 (stereo partly drawn) [Example 61, (S)-quinuclidin-3-yl (7-(1,3-dihydroisobenzofuran-5-yl)chroman-4-yl)carbamate] | 1.36 | 40.1
O=C(NC1CCOc2cc(-c3ccc4nsnc4c3)ccc21)O[C@@H]1CN2CCC1CC2 (stereo partly drawn) [Example 62, (S)-quinuclidin-3-yl (7-(benzo[c][1,2,5]thiadiazol-5-yl)chroman-4-yl)carbamate] | 1.03 | 21.2
CN1CCOc2cc(-c3ccc4c(c3)OCCC4NC(=O)O[C@@H]3CN4CCC3CC4)ccc21 (stereo partly drawn) [Example 63, (S)-quinuclidin-3-yl (7-(4-methyl-3,4-dihydro-2H-benzo[b][1,4]oxazin-7-yl)chroman-4-yl)carbamate] | 1.33 | 27
